The values that follow come from ChEMBL document CHEMBL4673262, “Ginkgobilol, a new diarylpentanoid and an osteogenic diarylpentanoid analog from Ginkgo biloba leaves” (2020).

Experiment [1] relates to C3H 10T1/2. Briefly: Induction of osteogenic differentiation in mouse C3H10T1/2 cells assessed as osteoblast by measuring increase in alkaline phosphatase at 20 uM relative to control. Type of experiment: functional, cell-based.
In experiment [2] the test system is C3H 10T1/2. As to the kind of experiment: Induction of osteogenic differentiation in mouse C3H10T1/2 cells assessed as increase in alkaline phosphatase mRNA expression by RT-qPCR analysis relative to control. Type of experiment: functional, cell-based. Background: Real-time PCR tracks product formation cycle by cycle.
Experiment [3] deals with C3H 10T1/2. Briefly: Induction of osteogenic differentiation in mouse C3H10T1/2 cells assessed as increase in osteopontin mRNA expression by RT-qPCR analysis relative to control. Type of experiment: functional, cell-based.
Experiment [4] can be described thus: Induction of osteogenic differentiation in mouse C3H10T1/2 cells assessed as increase in osteopontin mRNA expression at 40 uM by RT-qPCR analysis relative to control. Type of experiment: functional, C3H 10T1/2.
Experiment [5] deals with C3H 10T1/2. As to the kind of experiment: Induction of osteogenic differentiation in mouse C3H10T1/2 cells upto 40 uM assessed as osteoblast by measuring alkaline phosphatase after 10 days of differentiation relative to control. Type of experiment: functional, cell-based. To be noted: dose microM <=40, time 10.0 day.
The nature of experiment [6]: Induction of osteogenic differentiation in mouse C3H10T1/2 cells assessed as increase in alkaline phosphatase mRNA expression at 40 uM by RT-qPCR analysis relative to control. Type of experiment: functional, C3H 10T1/2.
Experiment [7] concerns C3H 10T1/2. As to the kind of experiment: Induction of osteogenic differentiation in mouse C3H10T1/2 cells assessed as increase in osteopontin mRNA expression at 5 uM by RT-qPCR analysis relative to control. Type of experiment: functional, cell-based.
Experiment [8] relates to C3H 10T1/2. As to the kind of experiment: Induction of osteogenic differentiation in mouse C3H10T1/2 cells assessed as increase in alkaline phosphatase mRNA expression at 5 uM by RT-qPCR analysis relative to control. Type of experiment: functional, cell-based.

Molecules are shown by their SMILES. Active and inactive are the calls of the source. No cut-off for these calls is given here.

As for `CO[C@@H](c1ccc(O)cc1)[C@H](O)C/C=C\c1ccc(O)cc1`, the outcome in the experiment on C3H 10T1/2 [1] was inactive.
Turning to `Oc1ccc(/C=C\C/C=C\c2ccc(O)cc2)cc1`, the Activity entry with C3H 10T1/2 [2], in the experiment on C3H 10T1/2 [3] and in the experiment on C3H 10T1/2 [5] was “Dose-dependent effect” each time. Moreover, the “fold change (FC)” value in experiment [4] is on record as 4.7; in experiment [6], 7.8. Further, the result in the experiment with C3H 10T1/2 [1] was Active.
In the case of `COc1cc([C@H]2O[C@H](c3cc(OC)c(O)c(OC)c3)[C@@H](COC(=O)/C=C/c3ccc(O)cc3)[C@@H]2COC(=O)/C=C/c2ccc(O)cc2)cc(OC)c1O`, the result in the experiment with C3H 10T1/2 [7] and in the experiment with C3H 10T1/2 [8] was Active.
